How the values were obtained:
HGC-27 [1] = assay: Antiproliferative activity against human HGC-27 cells assessed as reduction in cell viability incubated for 72 hrs measured after 4 hrs of MTT addition by MTT assay; format: functional, cell-based
[2] = molecular target: Phosphatidylinositol 4,5-bisphosphate 3-kinase catalytic subunit alpha isoform (Homo sapiens, UniProt P42336); assay: Inhibition of recombinant human full length His-tagged PI3Kalpha expressed in baculovirus expression system using PIP2 as substrate by ADP-Glo reagent based assay
HGC-27 [3] = assay: Induction of apoptosis in human HGC-27 cells assessed as viable cells at 500 nM incubated for 24 hrs by annexin V-FITC and propidium iodide based staining based flow cytometry analysis (reference value: 83.7 %); format: functional; details: read-out: Activity
HGC-27 [4] = assay: Induction of apoptosis in human HGC-27 cells assessed as necrotic cells at 500 nM incubated for 24 hrs by annexin V-FITC and propidium iodide based staining based flow cytometry analysis (reference value: 1.95 %); format: functional
HGC-27 [5] = assay: Induction of apoptosis in human HGC-27 cells assessed as late apoptotic cells at 500 nM incubated for 24 hrs by annexin V-FITC and propidium iodide based staining based flow cytometry analysis (reference value: 8.15 %); format: functional
HGC-27 [6] = assay: Induction of apoptosis in human HGC-27 cells assessed as early apoptotic cells at 500 nM incubated for 24 hrs by annexin V-FITC and propidium iodide based staining based flow cytometry analysis (reference value: 6.22 %); format: functional

Phosphatidylinositol 4,5-bisphosphate 3-kinase catalytic subunit alpha isoform, sequence (P42336 whole entry, canonical isoform): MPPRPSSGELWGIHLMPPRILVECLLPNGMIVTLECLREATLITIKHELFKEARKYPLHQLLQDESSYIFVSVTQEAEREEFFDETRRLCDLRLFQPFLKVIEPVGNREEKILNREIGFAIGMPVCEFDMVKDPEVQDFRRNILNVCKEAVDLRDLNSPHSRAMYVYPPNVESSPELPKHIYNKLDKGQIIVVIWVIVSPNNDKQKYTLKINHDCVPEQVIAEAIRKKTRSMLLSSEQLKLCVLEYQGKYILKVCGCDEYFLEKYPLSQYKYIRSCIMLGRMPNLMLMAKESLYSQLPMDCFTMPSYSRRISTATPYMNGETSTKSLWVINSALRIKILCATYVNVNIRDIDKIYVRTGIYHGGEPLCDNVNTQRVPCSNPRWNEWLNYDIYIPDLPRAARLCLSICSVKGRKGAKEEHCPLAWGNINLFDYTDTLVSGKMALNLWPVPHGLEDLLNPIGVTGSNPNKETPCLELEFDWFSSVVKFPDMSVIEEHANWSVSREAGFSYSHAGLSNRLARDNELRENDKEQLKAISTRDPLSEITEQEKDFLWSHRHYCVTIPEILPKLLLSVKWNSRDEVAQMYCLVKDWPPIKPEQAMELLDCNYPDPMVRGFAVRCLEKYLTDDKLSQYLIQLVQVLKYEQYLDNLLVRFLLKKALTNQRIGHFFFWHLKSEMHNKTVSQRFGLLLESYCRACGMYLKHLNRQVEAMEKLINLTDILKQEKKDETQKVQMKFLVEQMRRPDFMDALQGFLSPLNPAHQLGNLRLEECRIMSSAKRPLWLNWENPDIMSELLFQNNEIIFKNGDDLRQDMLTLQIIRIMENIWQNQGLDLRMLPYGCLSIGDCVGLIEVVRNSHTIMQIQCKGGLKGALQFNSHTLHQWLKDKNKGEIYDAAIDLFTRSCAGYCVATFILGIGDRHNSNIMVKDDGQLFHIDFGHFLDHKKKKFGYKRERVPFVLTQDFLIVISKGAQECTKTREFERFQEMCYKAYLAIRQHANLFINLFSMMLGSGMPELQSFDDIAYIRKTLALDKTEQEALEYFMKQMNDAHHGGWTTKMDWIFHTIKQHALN

| SMILES | IC50 (HGC-27 [1]) [nM] | IC50 [2] [nM] | also measured |
| --- | --- | --- | --- |
| COc1ncc(-c2cc3c(-c4ccncc4)ncnc3s2)cc1NS(=O)(=O)c1ccc(F)cc1F | 1700 | 5.1 |  |
| COc1ncc(-c2cc3c(N4CCC(OC)CC4)ncnc3s2)cc1NS(=O)(=O)c1ccc(F)cc1F | 280 | 4.8 |  |
| COc1ncc(-c2nc3c(N4CCCCC4)ncnc3s2)cc1NS(=O)(=O)c1ccc(F)cc1F | 960 | 8.8 |  |
| COc1ncc(-c2cc3c(N4CCOC[C@@H]4C)ncnc3s2)cc1NS(=O)(=O)c1ccc(F)cc1F | 670 | 11 |  |
| COc1ncc(-c2nc3c(N4CCOC[C@H]4C)ncnc3s2)cc1NS(=O)(=O)c1ccc(F)cc1F | 47 | 1.9 |  |
| COc1ncc(-c2nc3c(N4CCOC[C@@H]4C)ncnc3s2)cc1NS(=O)(=O)c1ccc(F)cc1F | 170 | 2 |  |
| COc1ncc(-c2nc3c(N4CCCC4)ncnc3s2)cc1NS(=O)(=O)c1ccc(F)cc1F | 1200 | 3.5 |  |
| COc1ncc(-c2cc3c(N4CC5COCC5C4)ncnc3s2)cc1NS(=O)(=O)c1ccc(F)cc1F (stereo unspecified) | 300 | 14 |  |
| COc1ncc(-c2cc3c(N4CC(OC)C4)ncnc3s2)cc1NS(=O)(=O)c1ccc(F)cc1F | 830 | 7.2 |  |
| COc1ncc(-c2cc3c(N4CCCC4)ncnc3s2)cc1NS(=O)(=O)c1ccc(F)cc1F | 2300 | 14 |  |
| COc1ncc(-c2cc3c(N4CC(C)OC(C)C4)ncnc3s2)cc1NS(=O)(=O)c1ccc(F)cc1F (racemic) | 860 | 16 |  |
| COc1ncc(-c2cc3c(N4CC5CCCC5C4)ncnc3s2)cc1NS(=O)(=O)c1ccc(F)cc1F (stereo unspecified) | 1900 | 47 |  |
| Nc1cc(C(F)(F)F)c(-c2cc(N3CCOCC3)nc(N3CCOCC3)n2)cn1 [BUPARLISIB] |  |  | viability at 0.5 µM (HGC-27 [3]): 74.9%; Activity (HGC-27 [4]): 0.3%; Activity (HGC-27 [5]): 8.93%; Activity (HGC-27 [6]): 15.9% |
| COc1ncc(-c2cc3c(N4C[C@@H](C)O[C@@H](C)C4)ncnc3s2)cc1NS(=O)(=O)c1ccc(F)cc1F | 560 | 15 |  |
| COc1ncc(-c2nc3c(N4CC(C)OC(C)C4)ncnc3s2)cc1NS(=O)(=O)c1ccc(F)cc1F (stereo unspecified) | 270 | 11 |  |
| COc1ncc(-c2cc3c(N4CCCCC4)ncnc3s2)cc1NS(=O)(=O)c1ccc(F)cc1F | 1200 | 14 |  |
| COc1ncc(-c2cc3c(N4CCOC[C@H]4C)ncnc3s2)cc1NS(=O)(=O)c1ccc(F)cc1F | 470 | 14 |  |
| COc1ncc(-c2cc3c(N4CCN(C)CC4)ncnc3s2)cc1NS(=O)(=O)c1ccc(F)cc1F | 560 | 109 |  |
| COc1ncc(-c2cc3c(N4CCSCC4)ncnc3s2)cc1NS(=O)(=O)c1ccc(F)cc1F | 810 | 17 |  |
| COc1ncc(-c2nc3c(N4CC5CCCC5C4)ncnc3s2)cc1NS(=O)(=O)c1ccc(F)cc1F (stereo unspecified) | 310 | 6.3 |  |
| COc1ncc(-c2nc3c(N4CCC(OC)CC4)ncnc3s2)cc1NS(=O)(=O)c1ccc(F)cc1F | 74 | 1.3 |  |
| COc1ncc(-c2cc3c(N4CCN(C)C(=O)C4)ncnc3s2)cc1NS(=O)(=O)c1ccc(F)cc1F | 920 | 16 |  |

Reference: ChEMBL document CHEMBL4673347, “Discovery of new thieno[2,3-d]pyrimidine and thiazolo[5,4-d]pyrimidine derivatives as orally active phosphoinositide 3-kinase inhibitors” (Bioorg Med Chem, 2021)
